For 33 molecules, IC50 and MIC results are on record in ChEMBL document CHEMBL1125556, “Fluoroquinolones: relationships between structural variations, mammalian cell cytotoxicity, and antimicrobial activity” (J Med Chem, 1992).

As a reminder, the IC50 is the concentration needed to halve the response being measured. Usually MIC stands for the lowest concentration found to suppress growth.

One experiment deals with V79. The experiment can be described thus: Mammalian cell cytotoxicity test in chinese hamster V79 cells (clonogenic cytotoxicity). Conditions: Cricetulus griseus, V79; read-out: IC50. The class given is functional, cell-based.
Experiment [1] is described as follows: Antibacterial activity against five Gram-negative bacteria. The class given is functional. As to conditions: read-out: MIC.

≈ marks a conversion by molar mass, not a printed value. A value given as a limit tells only on which side of the number the result lay.

`O=C(O)c1cn(C2CC2)c2c(C(F)(F)F)c(N3CCNCC3)c(F)cc2c1=O`: the IC50 in the experiment on V79 amounted to 1650 µg/mL (≈ 4130 µM). In addition, in experiment [1], the minimum inhibitory concentration (MIC) was 0.15 µg/mL (≈ 0.376 µM).

For the molecule `NC1CCN(c2c(F)cc3c(=O)c(C(=O)O)cn(C4CC4)c3c2C(F)(F)F)CC1`, the half-maximal inhibitory concentration (IC50) with V79 came out at 20 µg/mL (≈ 48.4 µM). The MIC in experiment [1] was 0.26 µg/mL (≈ 0.629 µM).

On to `NC1CCCN(c2c(F)cc3c(=O)c(C(=O)O)cn(C4CC4)c3c2C(F)(F)F)C1` (stereo unspecified), for which the IC50 in the experiment on V79 is more than 500 µg/mL. In experiment [1], the minimal inhibitory concentration (MIC) is 0.52 µg/mL (≈ 1.26 µM).

On to `CC1(CN)CCN(c2c(F)cc3c(=O)c(C(=O)O)cn(C4CC4)c3c2Cl)C1` (stereo unspecified), for which, in the experiment on V79, the IC50 worked out at 8 µg/mL (≈ 20.3 µM). The minimal inhibitory concentration (MIC) in experiment [1] was 0.07 µg/mL (≈ 0.178 µM).

As to `NC1CCN(c2c(F)cc3c(=O)c(C(=O)O)cn(-c4ccc(F)cc4F)c3c2C(F)(F)F)C1` (stereo unspecified), in the experiment on V79, the concentration for half-maximal inhibition (IC50) was 99 µg/mL (≈ 210 µM). Besides, the minimal inhibitory concentration (MIC) in experiment [1] is 0.52 µg/mL (≈ 1.1 µM).

As to `CNCC1(C)CCN(c2c(F)cc3c(=O)c(C(=O)O)cn(C4CC4)c3c2OC)C1` (stereo unspecified), the IC50 with V79 is 120 µg/mL (≈ 297 µM). In experiment [1], the MIC was 0.52 µg/mL (≈ 1.29 µM).

On to `O=C(O)c1cn(C2CC2)c2nc(N3CCCC3)c(F)cc2c1=O`, for which, in the experiment with V79, the IC50 worked out at 58 µg/mL (≈ 183 µM). For the same molecule, the minimum inhibitory concentration (MIC) in experiment [1] came to 0.26 µg/mL (≈ 0.819 µM).

`COc1c(N2CCC(N)C2)c(F)cc2c(=O)c(C(=O)O)cn(-c3ccc(F)cc3F)c12` (stereo unspecified): the half-maximal inhibitory concentration (IC50) in the experiment with V79 worked out at 290 µg/mL (≈ 669 µM). Besides, the MIC in experiment [1] amounted to 0.35 µg/mL (≈ 0.808 µM).

For `O=C(O)c1cn(C2CC2)c2c(Cl)c(N3CCCC3)c(F)cc2c1=O`, the IC50 in the experiment with V79 was 150 µg/mL (≈ 428 µM). In addition, the minimum inhibitory concentration (MIC) in experiment [1] was 0.1 µg/mL (≈ 0.285 µM).

As to `NC1CCN(c2c(F)cc3c(=O)c(C(=O)O)cn(C4CC4)c3c2Cl)CC1`, the 50% inhibitory concentration (IC50) in the experiment on V79 was 18 µg/mL (≈ 47.4 µM). In addition, the minimal inhibitory concentration (MIC) in experiment [1] came to 0.08 µg/mL (≈ 0.211 µM).

With `CNCC1(C)CCN(c2c(F)cc3c(=O)c(C(=O)O)cn(C4CC4)c3c2C(F)(F)F)C1` (stereo unspecified), in the experiment on V79, the IC50 was 230 µg/mL (≈ 521 µM). Also, the MIC in experiment [1] was more than 30 µg/mL.

For `O=C(O)c1cn(C2CC2)c2cc(N3CCCC3)c(F)cc2c1=O`, in the experiment on V79, the IC50 stood at 38 µg/mL (≈ 120 µM). Moreover, the MIC in experiment [1] came out at 0.2 µg/mL (≈ 0.632 µM).

As for `NC1CCN(c2c(F)c(F)c3c(=O)c(C(=O)O)cn(C4CC4)c3c2F)C1` (stereo unspecified), the IC50 in the experiment with V79 is 100 µg/mL (≈ 272 µM). Further, the minimum inhibitory concentration (MIC) in experiment [1] was 0.08 µg/mL (≈ 0.218 µM).

Take `CCNCC1CCN(c2c(F)cc3c(=O)c(C(=O)O)cn(-c4ccc(F)cc4F)c3c2Cl)C1` (stereo unspecified): in the experiment on V79, the IC50 stood at 130 µg/mL (≈ 271 µM). Further, the MIC in experiment [1] worked out at 1.05 µg/mL (≈ 2.19 µM).

For `CNCC1(C)CCN(c2c(F)cc3c(=O)c(C(=O)O)cn(C4CC4)c3c2F)C1` (stereo unspecified), in the experiment on V79, the IC50 came out at 8 µg/mL (≈ 20.4 µM). Besides, the minimal inhibitory concentration (MIC) in experiment [1] amounted to 0.23 µg/mL (≈ 0.588 µM).

As for `CCNCC1CCN(c2c(F)c(Cl)c3c(=O)c(C(=O)O)cn(C4CC4)c3c2Cl)C1` (stereo unspecified), in the experiment on V79, the concentration for half-maximal inhibition (IC50) is 270 µg/mL (≈ 610 µM). The minimal inhibitory concentration (MIC) in experiment [1] was determined as 0.6 µg/mL (≈ 1.36 µM).

On to `COc1c(N2CCC(C)(N)C2)c(F)cc2c(=O)c(C(=O)O)cn(C3CC3)c12` (stereo unspecified), for which the IC50 with V79 turned out to be 38 µg/mL (≈ 101 µM). The MIC in experiment [1] amounted to 0.26 µg/mL (≈ 0.693 µM).

As for `CC1(N)CCN(c2c(F)cc3c(=O)c(C(=O)O)cn(-c4ccc(F)cc4F)c3c2C(F)(F)F)C1` (stereo unspecified), in the experiment with V79, the IC50 was 18 µg/mL (≈ 37.1 µM). Besides, in experiment [1], the minimum inhibitory concentration (MIC) turned out to be 2.07 µg/mL (≈ 4.26 µM).

For the molecule `CSc1c(N2CCC(N)C2)c(F)cc2c(=O)c(C(=O)O)cn(C3CC3)c12` (stereo unspecified), the IC50 with V79 came to 31 µg/mL (≈ 82.1 µM). The MIC in experiment [1] stood at 0.2 µg/mL (≈ 0.53 µM).

With `CCNCC1CCN(c2cc3c(c(C)c2F)c(=O)c(C(=O)O)cn3C2CC2)C1` (stereo unspecified), the IC50 in the experiment on V79 came out at 42 µg/mL (≈ 108 µM). Also, in experiment [1], the MIC came out at 0.6 µg/mL (≈ 1.55 µM).

On to `NCC1CCN(c2c(F)cc3c(=O)c(C(=O)O)cn(C4CC4)c3c2F)C1` (stereo unspecified), for which the IC50 with V79 amounted to 11 µg/mL (≈ 30.3 µM). Also, the MIC in experiment [1] came out at 0.05 µg/mL (≈ 0.138 µM).

For `COc1c(N2CCNCC2)c(F)cc2c(=O)c(C(=O)O)cn(C3CC3)c12`, the concentration for half-maximal inhibition (IC50) in the experiment on V79 was 82 µg/mL (≈ 227 µM). Moreover, the MIC in experiment [1] worked out at 0.07 µg/mL (≈ 0.194 µM).

For the molecule `COc1c(N2CCCC(N)C2)c(F)cc2c(=O)c(C(=O)O)cn(C3CC3)c12` (stereo unspecified), the IC50 in the experiment with V79 amounted to 69 µg/mL (≈ 184 µM). Also, the MIC in experiment [1] was determined as 0.23 µg/mL (≈ 0.613 µM).

For the molecule `Nc1c(F)c(N2CCC(N)C2)c(F)c2c1c(=O)c(C(=O)O)cn2C1CC1` (stereo unspecified), the half-maximal inhibitory concentration (IC50) with V79 worked out at 15 µg/mL (≈ 41.2 µM). Also, the MIC in experiment [1] came out at 0.01 µg/mL (≈ 0.0274 µM).

As for `CC1CN(c2cc3c(cc2F)c(=O)c(C(=O)O)cn3C2CC2)CC(C)N1` (stereo unspecified), in the experiment on V79, the IC50 was more than 500 µg/mL. For the same molecule, the minimum inhibitory concentration (MIC) in experiment [1] amounted to 0.08 µg/mL (≈ 0.223 µM).

Regarding `COc1c(N2CC(C)NC(C)C2)c(F)cc2c(=O)c(C(=O)O)cn(C3CC3)c12` (stereo unspecified), the 50% inhibitory concentration (IC50) in the experiment with V79 is more than 500 µg/mL. The minimal inhibitory concentration (MIC) in experiment [1] was determined as 0.34 µg/mL (≈ 0.873 µM).

With `CC1CN(c2c(F)cc3c(=O)c(C(=O)O)cn(C4CC4)c3c2F)CC(C)N1` (stereo unspecified), the 50% inhibitory concentration (IC50) with V79 was determined as 150 µg/mL (≈ 397 µM). The MIC in experiment [1] is 0.05 µg/mL (≈ 0.132 µM).

With `COc1c(N2CCC(CN)C2)c(F)cc2c(=O)c(C(=O)O)cn(C3CC3)c12` (stereo unspecified), the half-maximal inhibitory concentration (IC50) in the experiment with V79 worked out at 10 µg/mL (≈ 26.6 µM). The minimum inhibitory concentration (MIC) in experiment [1] amounted to 0.11 µg/mL (≈ 0.293 µM).

Turning to `O=C(O)c1cn(C2CC2)c2c(F)c(N3CCNCC3)c(F)cc2c1=O`, in the experiment with V79, the half-inhibitory concentration (IC50) was found to be 47 µg/mL (≈ 135 µM). Besides, the minimum inhibitory concentration (MIC) in experiment [1] was 0.07 µg/mL (≈ 0.2 µM).

`NC1CCN(c2c(F)c(O)c3c(=O)c(C(=O)O)cn(C4CC4)c3c2F)C1` (stereo unspecified): the IC50 with V79 came out at 43 µg/mL (≈ 118 µM). Besides, the MIC in experiment [1] is 0.03 µg/mL (≈ 0.0821 µM).

As to `CCc1c(F)c(N2CCC(N)C2)cc2c1c(=O)c(C(=O)O)cn2C1CC1` (stereo unspecified), the IC50 in the experiment with V79 was 46 µg/mL (≈ 128 µM). The minimum inhibitory concentration (MIC) in experiment [1] is 1.81 µg/mL (≈ 5.04 µM).

As to `NC1CCN(c2cc3c(c(O)c2F)c(=O)c(C(=O)O)cn3C2CC2)C1` (stereo unspecified), the IC50 in the experiment on V79 was 72 µg/mL (≈ 207 µM). The minimum inhibitory concentration (MIC) in experiment [1] stood at 0.04 µg/mL (≈ 0.115 µM).

Turning to `CCNCC1CCN(c2c(F)c(C)c3c(=O)c(C(=O)O)cn(C4CC4)c3c2F)C1` (stereo unspecified), the IC50 in the experiment with V79 came to 9 µg/mL (≈ 22.2 µM). The minimum inhibitory concentration (MIC) in experiment [1] worked out at 0.28 µg/mL (≈ 0.691 µM).
